Test results reported in the supplement of paper PMC10307832.

How the values were obtained:
Test in all cases: relative viability (nuclei count vs DMSO), 5 days (fraction); higher = more cells survive
Everolimus + Trametinib = compound: CO[C@H]1C[C@@H]2CC[C@@H](C)[C@@](O)(O2)C(=O)C(=O)N2CCCC[C@H]2C(=O)O[C@H]([C@H](C)C[C@@H]2CC[C@@H](OCCO)[C@H](OC)C2)CC(=O)[C@H](C)/C=C(\C)[C@@H](O)[C@@H](OC)C(=O)[C@H](C)C[C@H](C)/C=C/C=C/C=C/1C [Everolimus] + CC(=O)Nc1cccc(-n2c(=O)n(C3CC3)c(=O)c3c(Nc4ccc(I)cc4F)n(C)c(=O)c(C)c32)c1 [Trametinib] (partner 0.02 µM)
Procedure, shortened: (§1)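 For relative viability, nuclei counts in treated wells were divided by those in vehicle wells. Lung cancer cell lines had been pin-tool dosed in 1536-well plates the day after seeding and cultured for 5 days, then fixed and stained in one step (final 0.05% Triton X-100, 1% formaldehyde, 1 ug/ml Hoechst) and imaged at 4×. Doses were one drug alone or a fixed anchor-drug dose plus five library-drug doses (not always all listed) in √10 steps, and values are duplicate-plate medians.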

Everolimus + Navitoclax = compound: CO[C@H]1C[C@@H]2CC[C@@H](C)[C@@](O)(O2)C(=O)C(=O)N2CCCC[C@H]2C(=O)O[C@H]([C@H](C)C[C@@H]2CC[C@@H](OCCO)[C@H](OC)C2)CC(=O)[C@H](C)/C=C(\C)[C@@H](O)[C@@H](OC)C(=O)[C@H](C)C[C@H](C)/C=C/C=C/C=C/1C [Everolimus] + CC1(C)CCC(c2ccc(Cl)cc2)=C(CN2CCN(c3ccc(C(=O)NS(=O)(=O)c4ccc(N[C@H](CCN5CCOCC5)CSc5ccccc5)c(S(=O)(=O)C(F)(F)F)c4)cc3)CC2)C1 [Navitoclax] (partner 0.5 µM)
Procedure, shortened: as §1

Everolimus + Phenformin = compound: CO[C@H]1C[C@@H]2CC[C@@H](C)[C@@](O)(O2)C(=O)C(=O)N2CCCC[C@H]2C(=O)O[C@H]([C@H](C)C[C@@H]2CC[C@@H](OCCO)[C@H](OC)C2)CC(=O)[C@H](C)/C=C(\C)[C@@H](O)[C@@H](OC)C(=O)[C@H](C)C[C@H](C)/C=C/C=C/C=C/1C [Everolimus] + N=C(N)NC(=N)NCCc1ccccc1 [Phenformin] (partner 250 µM)
Procedure, shortened: as §1

Everolimus + Pemetrexed = compound: CO[C@H]1C[C@@H]2CC[C@@H](C)[C@@](O)(O2)C(=O)C(=O)N2CCCC[C@H]2C(=O)O[C@H]([C@H](C)C[C@@H]2CC[C@@H](OCCO)[C@H](OC)C2)CC(=O)[C@H](C)/C=C(\C)[C@@H](O)[C@@H](OC)C(=O)[C@H](C)C[C@H](C)/C=C/C=C/C=C/1C [Everolimus] + Nc1nc2[nH]cc(CCc3ccc(C(=O)N[C@@H](CCC(=O)O)C(=O)O)cc3)c2c(=O)[nH]1 [Pemetrexed] (partner 0.2 µM)
Procedure, shortened: as §1

Cell Line	relative viability (Everolimus + Trametinib; first compound 0.01 µM)	relative viability (Everolimus + Trametinib; first compound 0.03162 µM)	relative viability (Everolimus + Trametinib; first compound 0.1 µM)	relative viability (Everolimus + Trametinib; first compound 0.3162 µM)	relative viability (Everolimus + Trametinib; first compound 1 µM)	relative viability (Everolimus + Navitoclax; first compound 0.01 µM)	relative viability (Everolimus + Navitoclax; first compound 0.03162 µM)	relative viability (Everolimus + Navitoclax; first compound 0.1 µM)	relative viability (Everolimus + Navitoclax; first compound 0.3162 µM)	relative viability (Everolimus + Navitoclax; first compound 1 µM)	relative viability (Everolimus + Phenformin; first compound 0.01 µM)	relative viability (Everolimus + Phenformin; first compound 0.03162 µM)	relative viability (Everolimus + Phenformin; first compound 0.1 µM)	relative viability (Everolimus + Phenformin; first compound 0.3162 µM)	relative viability (Everolimus + Phenformin; first compound 1 µM)	relative viability (Everolimus + Pemetrexed; first compound 0.01 µM)	relative viability (Everolimus + Pemetrexed; first compound 0.03162 µM)	relative viability (Everolimus + Pemetrexed; first compound 0.1 µM)	relative viability (Everolimus + Pemetrexed; first compound 0.3162 µM)	relative viability (Everolimus + Pemetrexed; first compound 1 µM)
SW 1573	0.3	0.311	0.291	0.303	0.281	0.577	0.466	0.464	0.533	0.395	0.205	0.238	0.175	0.182	0.12	0.594	0.592	0.543	0.562	0.496
PC-14	0.297	0.444	0.23	0.36	0.276	1.06	1.05	0.88	0.911	0.864	0.443	0.369	0.459	0.32	0.488	0.176	0.186	0.181	0.184	0.184
LK-2	0.688	0.468	0.425	0.421	0.438	0.851	0.557	0.408	0.508	0.461	0.299		0.154	0.166	0.233	0.203	0.229	0.212	0.208	0.167
COR-L23	0.37	0.337	0.316	0.375	0.294	0.706	0.597	0.662	0.636	0.765	0.368	0.413	0.395	0.421	0.424	0.196	0.194	0.189	0.193	0.186
NCI-H1944	0.311	0.303	0.341	0.312	0.298	0.697	0.668	0.555	0.628	0.571	0.183	0.19	0.165	0.208	0.222	0.497	0.545	0.393	0.489	0.404
HCC-78	0.637	0.56	0.493	0.529	0.47	0.853	0.421	0.424	0.589	0.455	0.504	0.462	0.451	0.564	0.626	0.902	0.929	0.873	0.914	0.93
NCI-H2405	0.419	0.362	0.385	0.426	0.431	0.672	0.63	0.53	0.662	0.452	0.364	0.353	0.33	0.335	0.382	0.796	0.825	0.671	0.726	0.825
SK-LU-1	0.39	0.355	0.298	0.345	0.317	0.529	0.48	0.494	0.568	0.475	0.306	0.323	0.291	0.369	0.342	0.607	0.683	0.688	0.74	0.681
EMC-BAC-2	0.502	0.605	0.536		0.503	0.9	0.806	0.619	0.736	0.61	0.377	0.364	0.322	0.383	0.422	0.469	0.491	0.445	0.45	0.491
NCI-H1650	0.48	0.489	0.437	0.481	0.58	1.2	0.824	1.06	1.2	0.876	0.36	0.372	0.46	0.392	0.417	0.451	0.359	0.325	0.442	0.414
NCI-H596	0.613	0.507	0.497	0.525	0.575	0.427	0.361	0.394	0.374	0.369	0.494	0.505	0.396	0.513	0.554	0.454	0.46	0.471	0.433	0.443
LCLC-97TM1	0.153	0.164	0.126	0.155	0.147	0.417	0.388	0.255	0.217	0.239	0.46	0.513	0.483	0.353	0.437	0.165	0.195	0.196	0.18	0.211
H3255	0.414	0.391	0.351	0.433	0.403	0.252	0.23	0.188	0.167	0.148	0.332	0.271	0.354	0.363	0.288	0.459	0.458	0.478	0.449	0.455
LXF-289	0.625	0.537	0.574	0.508	0.528	0.99	1.04	0.958	0.96	0.957	0.526	0.541	0.507	0.574	0.512	1.09	1.07	0.823	1.12	1.02
UMC-11	0.267	0.299	0.252	0.348	0.295	0.171	0.164	0.166	0.207	0.179	0.281	0.249	0.261	0.294	0.269	0.43	0.412	0.429	0.394	0.426
